Laboratory results taken from ChEMBL document CHEMBL4152309, “N-phenylsulfonyl-3,5-bis(arylidene)-4-piperidone derivatives as activation NF-κB inhibitors in hepatic carcinoma cell lines” (Eur J Med Chem, 2018).
The source made the active and inactive calls. No cut-off for these calls is given here.

What was measured:
[1] = tested on: QGY-7703; test: Cytotoxicity against human QGY7703 cells assessed as reduction in cell viability after 24 hrs by MTT assay; type: functional, cell-based; settings: for IC50: QGY-7703, 24 h
[2] = tested on: HepG2; test: Cytotoxicity against human HepG2 cells assessed as reduction in cell viability after 24 hrs by MTT assay; type: functional, cell-based; settings: for IC50: HepG2, 24 h
[3] = tested on: SMMC-7721; test: Cytotoxicity against human SMMC7721 cells assessed as reduction in cell viability after 24 hrs by MTT assay; type: functional, cell-based; settings: for IC50: SMMC-7721, 24 h
[4] = Cytotoxicity against human HHL5 cells assessed as reduction in cell viability after 24 hrs by MTT assay; type: cell-based; settings: HHL-5, 24 h
[5] = tested on: L02; test: Cytotoxicity against human LO2 cells assessed as reduction in cell viability after 24 hrs by MTT assay; type: cell-based; settings: L02, 24 h
[6] = Cytotoxicity against mouse RAW264.7 cells assessed as cell viability at 10 uM after 24 hrs by MTT assay relative to control; type: cell-based; settings: read-out: Activity
[7] = tested on: RAW264.7; test: Anti-inflammatory activity in mouse RAW264.7 cells assessed as inhibition of LPS-induced TNFalpha secretion at 10 uM pretreated for 2 hrs followed by LPS stimulation and measured after 22 hrs by ELISA; type: functional, cell-based

Compound | Activity [1] | IC50 [1] [µM] | Activity [2] | IC50 [2] [µM] | Activity [3] | IC50 [3] [µM] | IC50 [4] [µM] | IC50 [5] [µM] | viability at 24 h, 10 µM [6] [%] | inhibition [7]
COc1cccc2c1C(=O)c1c(O)c3c(c(O)c1C2=O)C[C@@](O)(C(=O)CO)C[C@@H]3O[C@H]1C[C@H](N)[C@H](O)[C@H](C)O1 [DOXORUBICIN] | Dose-dependent effect | 1.44 | Dose-dependent effect | 1.01 | Dose-dependent effect | 1.47 | 9.27 | 7.87 | – | –
O=C1/C(=C/c2ccccc2F)CN(S(=O)(=O)c2ccc(F)cc2)C/C1=C\c1ccccc1F | – | 8.5 | – | 7.22 | – | 8.37 | 13.4 | 19.1 | > 80 | –
COc1cc(/C=C2\CN(S(=O)(=O)c3ccc(F)cc3)C/C(=C\c3ccc(C#N)cc3)C2=O)cc(OC)c1OC | – | 4.98 | – | 4.95 | – | 4.12 | 12.9 | 12.9 | > 80 | –
CC(=O)Nc1ccc(S(=O)(=O)N2C/C(=C\c3ccccc3F)C(=O)/C(=C/c3ccccc3F)C2)cc1 | – | 5.5 | – | 5.84 | – | 7.49 | 13.3 | 11.6 | > 80 | –
COc1cc(/C=C2\CN(S(=O)(=O)c3ccc(NC(C)=O)cc3)C/C(=C\c3cc(OC)c(OC)c(OC)c3)C2=O)cc(OC)c1OC | – | 1.9 | – | 3.89 | – | 3.47 | 13.8 | 13.6 | > 80 | –
COc1cc(/C=C2\CN(S(=O)(=O)c3ccc(NC(C)=O)cc3)C/C(=C\c3cc(OC)cc(OC)c3)C2=O)cc(OC)c1 | – | 11.3 | – | 7.54 | – | 6.84 | 18.1 | 18.7 | > 80 | –
COc1cc(/C=C/C(=O)CC(=O)/C=C/c2ccc(O)c(OC)c2)ccc1O [CURCUMIN] | – | 21.4 | – | 16 | – | 19.5 | 22.3 | 23.9 | – | –
COc1cc(/C=C2\CN(S(=O)(=O)c3ccc(F)cc3)C/C(=C\c3cc(OC)c(OC)c(OC)c3)C2=O)cc(OC)c1OC | – | 2.22 | – | 4.2 | – | 3.84 | 11 | 12.1 | > 80 | –
CC(=O)Nc1ccc(S(=O)(=O)N2C/C(=C\c3ccc(C#N)cc3)C(=O)/C(=C/c3ccccc3F)C2)cc1 | – | 2.05 | – | 4.96 | – | 3.15 | 11.3 | 14.4 | > 80 | –
COc1cc(/C=C2\CN(S(=O)(=O)c3ccc(NC(C)=O)cc3)C/C(=C\c3ccccc3F)C2=O)cc(OC)c1 | – | 3.69 | – | 6.8 | – | 5.21 | 15.3 | 15.4 | > 80 | –
COc1cc(/C=C2\CN(S(=O)(=O)c3ccc(NC(C)=O)cc3)C/C(=C\c3cccc([N+](=O)[O-])c3)C2=O)cc(OC)c1OC | – | 2.55 | – | 3.34 | – | 1.95 | 14.2 | 15.6 | > 80 | –
COc1cc(/C=C2\CN(S(=O)(=O)c3ccc(F)cc3)C/C(=C\c3cc(OC)cc(OC)c3)C2=O)cc(OC)c1 | – | 11.4 | – | 8.1 | – | 8.21 | 14.4 | 19.8 | > 80 | –
COc1cc(/C=C2\CN(S(=O)(=O)c3ccc(F)cc3)C/C(=C\c3cc(OC)c(OC)c(OC)c3)C2=O)cc(OC)c1 | – | 5.2 | – | 3.89 | – | 5.42 | 11.3 | 12.3 | > 80 | Active
